Source: US20170254803A1, “METHOD FOR THE DETECTION OF ANTIGEN PRESENTATION” (Deutsches Krebsforschungszentrum Stiftung des öffentlichen …, priority 2014, published 2017)
Ends that are not written are not given here.

Columns and labels:
[1] = test system: anti-IDH1R132H antibody (H09); experiment: IDH1R132H and IDH1 wildtype peptide coated ELISA; type: binding, mouse; details: 10 μg peptide per well; H09 1:1000; OD at 450 nm (FIG. 1C)
Protocol: ELISA plates (Costar) were coated with IDH1R132H and IDH1wt p118-132, p120-134, p122-136, p124-138, p126-140, p128-142, p130-144, p132-146, p123-142 (10 μg per well in PBS), washed with PBS 0.05% Tween 20, and blocked with 3% FBS in PBS 0.05% Tween 20. As negative controls, MOG p35-55 was used at equal concentrations and peptide diluent PBS 10% DMSO was used at equal volume. As primary antibody monoclonal mouse anti-IDH1R132H (1:1000, H09, Dianova) was used. HRP-conjugated secondary antibody was sheep anti-mouse IgG (1:5000, Amersham). HLA-DRB1*01:01 MHC class II tetramer bound to IDH1R132H p123-142 and HLA-DRB1*01:01 MHC class II tetramer control tetramer bound to CLIP were kindly provided by NIH tetramer core facility and used 1:200 during pre-incubation with H09 for competitive ELISA. Substrate was TMB (ebioscience) and reaction was stopped with 1M H2SO4. OD at 450 nm was measured with an ELISA reader (Thermo Fisher).

[2] = target: HLA-DR in patients' glioma tissue; experiment: cell-based or functional assay

Substance | binding of anti-IDH1R132H antibody to coated peptide [1] | positivity in the IDH1R132H-MHC class II PLA system (glioma tissue, positivity set to 20 PLA signals per high power field) (of 9 IDH1R132H+ gliomas) [2]
IDH1R132H (endogenous, in human glioma tissue) (from UniProt O75874 2-414) | – | 5
KPIIIGHHAYGDQYR [KPIIIGHHAYGDQYR] | binds | –

Now from value to substance:

binding of anti-IDH1R132H antibody to coated peptide [1] | positivity in the IDH1R132H-MHC class II PLA system (glioma tissue, positivity set to 20 PLA signals per high power field) (of 9 IDH1R132H+ gliomas) [2] | Substance
binds | – | GWVKPIIIGHHAYGDQYRAT (listed as Homo sapiens) [p123-p142]
binds | – | WVKPIIIGHHAYGDQ [WVKPIIIGHHAYGDQ]
binds | – | SGWVKPIIIGHHAYG [SGWVKPIIIGHHAYG]
